PMC12040169 (PLOS Biology, 2025)

Assay: in vitro
Settings: human, hela cells, % viability

SMILES | viability at 28.5 h, 10 µM
COC(=O)c1c(NC(=S)Nc2cccc(S(=O)(=O)N3CCOCC3)c2)sc2c1CCC2 [CBK267054] | 93.8%
CCCC(=O)NC1CC(C)(C)Cc2nc(N3CCOCC3)ncc21 (stereo not shown) [CBK306883] | 94.7%
CC(=O)N1CCN(CC(O)Cn2c3ccccc3c3ccccc32)CC1 (stereo not shown) [CBK305588] | 102%
COc1ccc(C(NC(=O)C2CCN(C(=O)C(C)(C)C)CC2)c2cnccn2)cc1 (stereo not shown) [CBK059791] | 97%
Cc1cc(Cl)ccc1Nc1nnc(C)c(=O)[nH]1 [CBK287922] | 110%
O=C(N/C(=C/c1ccccc1)C(=O)N1CCCCC1)c1ccccc1 [CBK261280] | 94.7%
CC(=O)c1ccc(-c2nc(NC(=O)CC3OC(=O)c4ccccc43)cnc2-c2cccc(C)c2)s1 (stereo not shown) [CBK037152] | 112%
CN1CCC[C@H]1c1nc(-c2ccc(-n3ccnc3)nc2)no1 [CBK288893] | 96.6%
COc1ccc(-c2nc(NC(=O)C3CCC(OC)CC3)cnc2-c2ccc(F)cc2)cc1 (stereo not shown) [CBK037004] | 88.4%
Cc1ccc(S(=O)(=O)c2cccc(S(=O)(=O)N3CCOCC3)c2)cc1S(=O)(=O)N1CCOCC1 [CBK262117] | 109%
COC(=O)C(C)CSc1ccc(C(C)(C)C)cc1 (stereo not shown) [CBK010499] | 107%
CN(C)CCCNC(=O)c1ccnc(/C=N/O)c1 [CBK288434] | 101%
COc1ccccc1CC(=O)NNC(=O)c1ccco1 [CBK262956] | 91.6%
O=C(c1ccc(F)cc1)C1CCN(CC(O)COc2cccc3c2CCCC3)CC1 (stereo not shown) [CBK003583] | 101%
O=C(NCCN1CCCC1)c1cc2cc(Cl)ccc2[nH]1 [CBK107267] | 88%
CNc1nc(N)nc(OCC(F)(F)F)n1 [CBK028082] | 89.4%
CC(C)(C)OC(=O)N1CCC(COc2ncc(-c3ccc(C(=O)N4CCC[C@@H]4CO)nc3)cn2)CC1 [CBK170022] | 90.9%
O=C(O)CCCn1cc(NC(=O)c2ccc(Br)o2)cn1 [CBK270042] | 106%
O=c1[nH]ccn1CCNc1ccc(-c2ccccc2Oc2ccccc2)cn1 [CBK037665] | 103%
CN(C)[C@@H]1CN(C(=O)C2CC2)C[C@H]1c1cn(C)c2ccccc12 [CBK282681] | 110%
O=C(Nc1ccc2[nH]ccc2c1)c1ccc(F)c(F)c1 [CBK159683] | 88.3%
O=C(O)C(Cc1c[nH]c2ccccc12)N1C(=O)C2C3c4ccccc4C(c4ccccc43)C2C1=O (stereo not shown) [CBK265377] | 91.4%

SMILES | viability at 28.5 h, 10 µM
CN1CCc2c(sc3c2C(=O)NC(c2ccco2)N3)C1 (stereo not shown) [CBK287277] | 99.4%
CC(C)Cn1cnc2c(c1=N)C(c1ccccc1)c1ccc(O)cc1O2 (stereo not shown) [CBK287864] | 101%
Cc1ncccc1COC(=O)N1CCCC(F)C1 (stereo not shown) [CBK200155] | 118%
O=C(c1csnn1)N1Cc2ccccc2C1 [CBK200325] | 111%
COC(=O)c1cc(NC(=O)CC2Sc3ccccc3NC2=O)cc(C(=O)OC)c1 (stereo not shown) [CBK266260] | 99.6%
CCOC(=O)CN/C(=N/O)c1c(Cl)cccc1Cl [CBK022374] | 99.6%
O=[N+]([O-])c1cc(-c2nnc(-c3ccccc3)o2)ccc1-n1c(-c2ccccc2)nnc1-c1ccccc1 [CBK267341] | 99.2%
O=C(O)c1cc(-c2ccc(/C=C3\NC(=O)N(Cc4ccccc4)C3=O)o2)ccc1Cl [CBK078117] | 98.9%
CCc1nc2c(OCC=C(C)C)cccn2c1N(C)C(=O)c1cccc(OC)c1 [CBK147448] | 94.3%
O=C(Nc1ccc2cc[nH]c2c1)c1cccnc1 [CBK160053] | 97.9%
CN1C[C@@H](NC(=O)Nc2ccccc2)C[C@H]1c1nc(-c2cccnc2)no1 [CBK288858] | 104%
COc1ccc(CC(=O)NNC(=O)Nc2ccc(Cl)c(Cl)c2)cc1 [CBK262652] | 92.6%
FC(F)(F)c1cccc(OCc2ccc(-c3ccccc3)cc2)n1 [CBK115836] | 92.1%
COCc1ccc(C(=O)N2CCC(c3cc4ncccc4[nH]3)CC2)o1 [CBK283373] | 102%
CCCCCC(=O)Nc1ccc(C(=O)CSc2nnc(-c3ccco3)o2)cc1 [CBK295134] | 84%
Cc1nn(CC(C)C)c(C)c1CCC(=O)NCc1nnc2ccccn12 [CBK305719] | 88.1%
O=C(NC(N1CCCCC1)C(Cl)(Cl)Cl)NC(N1CCCCC1)C(Cl)(Cl)Cl (stereo not shown) [CBK261020] | 98.2%
COC1C(O)C(CO)OC1n1cc(I)c(N)nc1=O (stereo not shown) [CBK201296] | 92.2%
Cc1cc(C)n(CCNCc2cc(-c3ccc(F)cc3)c[nH]c2=O)n1 [CBK284694] | 89.2%
CS(=O)(=O)N(CC(=O)Nc1ccc(S(=O)(=O)N2CCCCCC2)cc1)c1ccccc1F [CBK266829] | 92.9%
Cc1nc2n(/N=C/c3ccc([N+](=O)[O-])cc3)c3ccccc3n2c1C#N [CBK263107] | 88.4%
COc1ccc(OCC(=O)Nc2nonc2-c2ccccc2)cc1 [CBK287798] | 93.9%

SMILES | viability at 28.5 h, 10 µM
COc1ccccc1CNCc1ccc(CNC(=O)OC(C)(C)C)cc1 [CBK056702] | 100%
CSc1nnnn1-c1cccc(NC(=O)N2CCCN(C)CC2)c1 [CBK304180] | 78.1%
COc1cc(-c2cnc(N)c(NCC(C)(C)CO)n2)cc(OC)c1OC [CBK063523] | 92.2%
O=C(Nc1ccc(I)cc1C(=O)NCCN1CCOCC1)c1ccco1 [CBK266211] | 100%
CCn1c2ccccc2c2cc(CN3CCN(Cc4cccc(F)c4)CC3)ccc21 [CBK263143] | 90.5%
Cc1c(C#N)c(=O)ncn1Cc1ccncc1 [CBK021603] | 102%
C[C@@H](Cn1nc2c(cc1=O)CCCC2)NC(=O)Cc1cccc(F)c1 [CBK284527] | 95.9%
CCC(O)c1nc(CCSC)nn1-c1cc(=O)n(C)c2ccccc12 (stereo not shown) [CBK307711] | 90.5%
COc1ccc(C(NC(=O)C2CCN(CCOc3ccc(Br)cc3)CC2)c2ccco2)cc1 (stereo not shown) [CBK148311] | 95.8%
O=C(O)CC1S/C(=N/N=C/c2ccc(-c3ccc(Cl)cc3)o2)NC1=O (stereo not shown) [CBK264595] | 125%
O=c1[nH]c(=O)n([C@@H]2O[C@H](CO)[C@H](O)C2O)cc1I (stereo partly shown) [CBK201304] | 94.6%
CC1(NC(=O)Cn2c(C(F)(F)F)nc3ccccc32)CCC1 [CBK281606] | 82.2%
Cc1ccc2nsnc2c1NC(=O)CN1CCC(C)CC1 [CBK269568] | 86.2%
Cn1ccnc1C1(O)CC2CCC(C1)N2C(=O)C1CCCC1 (stereo not shown) [CBK284052] | 86.4%
c1cncc(OCCOc2nsnc2N2CCNCC2)c1 [CBK001825G] | 94.4%
COc1cccc(Nc2cc(-c3ccc(N4CCOCC4)cc3)ncn2)c1 [CBK090733] | 68.7%
CC(C)(C)OC(=O)NC1CCN(C(=O)CCC(=O)O)CC1 [CBK286604] | 95.9%
OC(COc1ccc(F)cc1)CN1CCN(c2nc(-c3ccccc3)ns2)CC1 (stereo not shown) [CBK074698] | 91.8%
CC(C)c1noc([C@@H]2Cc3[nH]cnc3CN2C(=O)Nc2ccccc2)n1 [CBK288969] | 86.5%
COc1cccc(OC)c1-c1cn2ccnc2c(NCCc2ccccn2)n1 [CBK066173] | 109%
CCCCOc1cccc(C(=O)Nc2ccc(-c3nc4ccccc4o3)c(O)c2)c1 [CBK263435] | 101%
COc1ccccc1N1CCN(CC(=O)NC2CC3CCC2C3)CC1 (stereo not shown) [CBK269162] | 94.8%

SMILES | viability at 28.5 h, 10 µM
CN(C)c1nc(N(C)C)n(Cc2ccc(F)cc2)n1 [CBK018839] | 89.3%
CCCC/C=C/c1cncc(Nc2cc(OC)c(OC)c(OC)c2)n1 [CBK065155] | 102%
CC(C)(C)NCC(O)COc1ccc(Cl)cc1Cl (stereo not shown) [CBK025597C] | 101%
Cc1ccc(C(=O)C2=C(O)C(=O)N(CCO)C2c2ccccc2[N+](=O)[O-])cc1 (stereo not shown) [CBK263822] | 97.1%
O=C(COc1ccc(N2CC(C(=O)O)CC2=O)cc1)Nc1cccc(C(F)(F)F)c1 (stereo not shown) [CBK268096] | 100%
COc1ccc(S(=O)(=O)Nc2cc(N3CCCC3)c3occc3c2)cc1OC [CBK061975] | 97.2%
Nc1ncc(-c2ccc3c(c2)OCO3)nc1Nc1ccc2[nH]ccc2c1 [CBK063667] | 94.6%
CN(C)CC(C)(C)CN1C2CCC1CC(O)(c1ccccc1F)C2 (stereo not shown) [CBK282648] | 94.4%
COc1cc(C)c(Cl)c(C)c1S(=O)(=O)NCc1ccc2c(c1)OCO2 [CBK266518] | 96%
Cc1cc(CN(C)c2nccc(N3CCN[C@H]4CS(=O)(=O)C[C@H]43)n2)no1 [CBK306580] | 109%
COc1ccc(C(=O)Nc2c(C)nn(C)c2N2CCNCC2)cc1 [CBK050306T] | 94.5%
COCC(=O)N[C@H]1C[C@H]2C(=O)Nc3ccccc3C(=O)N2C1 [CBK289353] | 91.7%
Cc1cccc2c(C(=O)OCC(=O)c3ccc([N+](=O)[O-])cc3)cc(-c3ccc(Cl)cc3)nc12 [CBK264088] | 94.5%
O=S(=O)(c1ccc2ccccc2c1)N1CCCCC1CO (stereo not shown) [CBK200055] | 100%
O=C(C1=C(O)C(=O)N(Cc2ccncc2)C1c1cccc(OCc2ccccc2)c1)c1cccs1 (stereo not shown) [CBK266247] | 102%
Fc1ccc(COc2cccc(CNCc3ccccn3)c2)cc1 [CBK269987C] | 109%
COC(=O)c1ccc(N/C(C)=C/C(=O)c2ccc(C)o2)cc1 [CBK267057] | 115%
CN(C)CCN(C)c1cc(C(F)(F)F)nc(NCc2ccc(Cl)cc2)n1 [CBK009668] | 93%
O=C(CO)N1CC2(CCN(CC3COc4ccccc4O3)CC2)c2ccccc21 (stereo not shown) [CBK143951] | 105%
Cc1ccc(-c2noc(CN3CCN(C(c4ccccc4)c4ccccc4)CC3)n2)cc1 [CBK266425] | 96.5%
O=[N+]([O-])c1ccc(NCCNCCO)c(Cl)c1 [CBK261006] | 97.5%
CC(C)Oc1ccc(C(=O)C2=C(O)C(=O)N(Cc3cccnc3)C2c2ccncc2)cc1 (stereo not shown) [CBK264920] | 90%
